According to US11234943B2, “Use of reservatrol for the treatment of non-alcoholic fatty liver disease (NAFLD)” (priority 2016, dated 2022):
Where “and” joins values, the source holds several entries; their conditions need not be identical. Identical values can stand only once.

Legend:
[1] = system: subjects with non-alcoholic fatty liver disease; conditions: two 150 mg capsules twice daily for three months, cited from earlier work
NAFLD patients = conditions: meta-analysis of four trials, 156 patients, cited from earlier work
patients with NAFLD [2] = test: Adverse reactions during the 6-month study; type: in vivo, human; conditions: 50 mg or 200 mg once daily, 6 months
Description: Quantitative fat measurement, with ultrasound on the liver and kidney, were carried out. There was an initial measurement (time 1) and one after six months (time 2). […] As will be apparent, the results were highly positive, see the difference (Liver value Kidney Value) which is decreased during the time, even 2.5 years after the end of the study.
(§1) Then, the patients were divided into two groups (randomly assigned) according to the treatment given to them. 22 patients were given treatment 50 mg RSV micronized formulation, Evelor capsules once daily, (Group A) and 22 patients were given treatment 200 mg RSV micronized formulation, Evelor capsules, once daily, (Group B). The observation period lasted for 6 months. There was a clinical examination, blood tests and an abdominal ultrasound at the beginning of the study (time 1) and in 6 months (time 2). All patients were on low fat diet and they were being followed up by nutritionist.

patients with NAFLD [3] = test: Quantitative ultrasound liver/kidney echo measurement (liver fat), hepatic/renal value; type: in vivo, human; design: key to Difference (Liver Value − Kidney Value): hepatic minus renal cortex mean gray scale (US hepatic/renal value); key to Liver Value / Kidney Value: mean gray scale value of pixels within the ROI (echo intensity)
Description: A GE Log IQ5 expert Ultrasound Machine equipped with Ultrasound Transducer Probe (GE 3.5C model 2050357) The equipment can measure the Echo Level (EL) at specific areas and depths. EL measures the mean intensity of pixels within a user defined area (region of interest). Raw data provides the average sum (intensity per pixel)/pixels. The ultrasound depicts on screen the area (in cm^2), mean (intensity dB) and standard deviation (dispersion) Phantom Model 040GSE (CIRS-Multi Purpose, Multi Tissue u/s Phantom) to calibrate the Log IQ. The specific phantom simulates the human liver and kidney organs and serves for calibration.
Regarding the parameters “liver/kidney value” and “liver/kidney depth” we used the same methodology used by Ming-Feng Xia et al., Standardized Ultrasound Hepatic/Renal Ratio and Hepatic Attenuation Rate to Quantify Liver Fat Content: An Improvement Method 10.1038/oby.2011.302.
Ultrasound studies were performed by an experienced radiologist who was unaware of the patient's clinical details and laboratory findings. All the instrument settings, including gain and depth were fixed for each measurement. For assessment of ultrasound hepatic/renal echo value, ultrasound images with both liver and right kidney clearly visualized were obtained in the sagittal liver/right kidney view in the lateral position. A region of interest (ROI) was carefully selected excluding blood vessels, bile ducts and other focal hypoechoic or hyperechoic regions. Another ROI was identified in the right renal cortex with no large vessels, renal sinus or medulla. To avoid the interference of depth-depended echo-intensity attenuation and the borderline echo distorting effects, the boundary between liver and right kidney area should be placed near the center of the image, and the liver and right kidney ROIs were selected at the same depth of the ultrasound images. The gray scale mean value of the pixels within the two ROIs was used as measurement of echo intensity then we subtracted the average hepatic gray scale by the average renal cortex gray scale to calculate the US hepatic/renal value.
Standardization of ultrasound quantitative parameters was performed using an abdominal phantom.
Attenuation measurements were taken at 2 depths, at the Regions of Interest (ROI) xxcm (liver) and yycm (kidney). Attenuation was calculated by subtracting the EL (liver)−EL (kidney)=Hepato-Renal Index Difference.
In sagittal liver/right kidney view, a region of interest (ROI) of 1.5×1.5 cm (1,296 pixels) in the liver parenchyma was selected. The ROI had to be as uniform as possible, excluding blood vessels, bile ducts, and other focal hypo/hyper-echogenicity. Another ROI of 0.5×0.5 cm (144 pixels) was identified in the right renal cortex with no large vessels, renal sinus or medulla. To avoid the interference of depth-depended echo-intensity attenuation and the borderline echo distorting effects, the boundary between liver and right kidney area should be placed near the center of the image, and the liver and right kidney ROIs were selected at the same depth of the ultrasound images. The gray scale mean value of the pixels within the two ROIs was used as measurement of echo intensity. Then we subtracted the average hepatic gray scale by the average renal cortex gray scale to calculate the US hepatic/renal value.
To standardize the measured values of US H/R value and hepatic echo-intensity attenuation rate among different ultrasound machines, a 3D abdominal phantom, containing mimic abdominal organs, was used for standardization in this research.
Then, the patients were divided into two groups (randomly assigned) according to the treatment given to them. 22 patients were given treatment 50 mg RSV micronized formulation, Evelor capsules once daily, (Group A) and 22 patients were given treatment 200 mg RSV micronized formulation, Evelor capsules, once daily, (Group B). The observation period lasted for 6 months. […]

patients with NAFLD [4] = test: Blood tests in 6-month study of NAFLD patients given resveratrol micronized formulation; type: in vivo, human; design: unit not given here
Description: In this study. 50 mg or 200 mg RSV daily were supplemented to the standard treatment of 44 patients with NAFLD for a period of 6 months and the therapeutic efficacy of RSV was investigated. All patients who participated in this process were volunteers and they have provided written consents as well filled out all the required documents. The patients were selected after they were firstly diagnosed with non-alcoholic fatty liver disease. The primary inclusion criterion was evidence of tatty liver on ultrasonography (LS), which is the most commonly, used imaging technique with remarkable sensitivity. The US findings in non-alcoholic fatty liver disease are:
Participants underwent clinical examination, electrocardiogram and abdominal ultrasound. Also, blood tests were carried out and the following parameters were measured: serum glutamic pyruvic transaminase (SGPT), serum glutamic oxaloacetic transaminase (SGOT), Alkaline phosphatase (ALP), gamma-glutamyl transpeptidase (gGT), glucose, total cholesterol levels, high-density lipoprotein (HDL), low-density lipoprotein (LDL), triglycerides (TG), insulin, insulin resistance, liver value, liver depth, kidney value, kidney depth and difference liver-kidney values.
as §1
Two-way ANOVA with interaction (time and group) was used to test whether there are differences among dose levels, time levels and possible interaction among them. However, no significant interactions were discovered and standard two-way ANOVA was used without interactions. Moreover, an independent t-test was conducted to examine whether there were any differences between the values of physiological parameters at the beginning and the end of the study. A p-value<0.001 was considered to indicate a strongly statistically significant difference. The statistical program used was R 3.2.1.

[5] = Group A, 50 mg once daily, mean at time 1 (beginning of study)
[6] = Group A, 50 mg once daily, mean at time 2 (6 months)
[7] = Group B, 200 mg once daily, mean at time 1 (beginning of study)
[8] = Group B, 200 mg once daily, mean at time 2 (6 months)
[9] = individual patients of Group A (50 mg), first ultrasound, 0 month
[10] = individual patients of Group A (50 mg), fourth ultrasound, 2.5 years from the end of the study
[11] = individual patients of Group A (50 mg), second ultrasound, 6 months
[12] = individual patients of Group A (50 mg), third ultrasound, 6 months after the end of the study
[13] = individual patients of Group B (200 mg), first ultrasound, 0 month
[14] = individual patients of Group B (200 mg), fourth ultrasound, 2.5 years from the end of the study
[15] = individual patients of Group B (200 mg), second ultrasound, 6 months
[16] = individual patients of Group B (200 mg), third ultrasound, 6 months after the end of the study

## Oc1ccc(/C=C/c2cc(O)cc(O)c2)cc1 [Resveratrol, resveratrol]
[1]; compared with placebo group
  alanine aminotransferase: significantly decreased
  aspartate aminotransferase: significantly decreased
  glucose: significantly decreased
  homeostasis model assessment insulin resistance index: significantly decreased
  low-density lipoprotein cholesterol: significantly decreased
  total cholesterol: significantly decreased
[1]; resveratrol group
  adiponectin level: elevation
  level of TNF-α: significant reductions
  level of cytokeratin 18 fragment: significant reductions
  level of fibroblast growth factor: significant reductions
NAFLD patients; 95% CI: 0.18, 0.80, higher in resveratrol groups
  total cholesterol, mean difference (MD) vs placebo: 0.49
NAFLD patients; 95% CI: 0.21, 0.74, higher in resveratrol groups
  low-density lipoprotein, mean difference (MD) vs placebo: 0.47
NAFLD patients
  effects on attenuating NAFLD: negligible effects
Patients with NAFLD [2]
  adverse reactions (side effects): No adverse reactions (side effects) were noted
Patients with NAFLD [3]; [5]
  Difference L − K value: 22.71
  Kidney Value: 32.49
  Liver Value: 55.20
Patients with NAFLD [3]; [6]
  Difference L − K value: 17.00
  Kidney Value: 28.42
  Liver Value: 45.42
Patients with NAFLD [3]; [7]
  Difference L − K value: 26.46
  Kidney Value: 32.30
  Liver Value: 58.77
Patients with NAFLD [3]; [8]
  Difference L − K value: 18.115
  Kidney Value: 25.21
  Liver Value: 43.33
Patients with NAFLD [3]; groups A and B, end of the study
  liver fat as evidenced by ultrasound measurements: strongly statistically significant reduction
Patients with NAFLD [3]; [9]
  Difference (Liver Value − Kidney Value): 14.6 and 32.9 and 20.1 and 23.3 and 43.7 and 34.3
  Kidney Value: 30.4 and 35.0 and 25.3 and 32.6 and 52.4 and 7.0
  Liver Value: 45.0 and 67.9 and 45.4 and 55.9 and 96.1 and 41.3
Patients with NAFLD [3]; [10]
  Difference (Liver Value − Kidney Value): 5.5 and 9.8
  Kidney Value: 75.0 and 75.2
  Liver Value: 80.5 and 85.0
Patients with NAFLD [3]; [11]
  Difference (Liver Value − Kidney Value): 12.8 and 29.5 and 11.8 and 19 and 18.5 and 20.9
  Kidney Value: 29.2 and 26.4 and 20.1 and 30.8 and 26.5 and 21.0
  Liver Value: 42.0 and 55.9 and 31.9 and 49.8 and 45.0 and 41.9
Patients with NAFLD [3]; [12]
  Difference (Liver Value − Kidney Value): 16.7 and 10.3 and 24.4 and 1.6 and 17.6 and 9.4
  Kidney Value: 81.1 and 60.0 and 64.5 and 57.3 and 67.6 and 48.1
  Liver Value: 97.8 and 70.3 and 88.9 and 58.9 and 85.2 and 57.5
Patients with NAFLD [3]; [13]
  Difference (Liver Value − Kidney Value): 28.2 and 35.5 and 32.3 and 47.3 and 24.1 and 20.5 and 41 and 18.8
  Kidney Value: 32.2 and 26.5 and 23.6 and 39.5 and 22.7 and 14.2 and 28.6 and 33.3
  Liver Value: 60.4 and 62.0 and 55.9 and 86.8 and 46.8 and 34.7 and 69.6 and 52.1
Patients with NAFLD [3]; [14]
  Difference (Liver Value − Kidney Value): 7.9 and 5 and 17.3
  Kidney Value: 31.2 and 41.0 and 42.8
  Liver Value: 39.1 and 46.0 and 60.1
Patients with NAFLD [3]; [15]
  Difference (Liver Value − Kidney Value): 14.8 and 23.9 and 19 and 34.2 and 22.2 and 7.4 and 33.5 and 16.4
  Kidney Value: 33.0 and 22.1 and 31.1 and 18.9 and 14.4 and 42.4 and 17.0 and 16.8
  Liver Value: 47.8 and 46.0 and 50.1 and 53.1 and 36.6 and 49.8 and 50.5 and 33.2
Patients with NAFLD [3]; [16]
  Difference (Liver Value − Kidney Value): 13.2 and 8.9 and 22.1 and 10 and 18.3 and 13.7 and 6 and 16.8
  Kidney Value: 61.7 and 53.0 and 55.2 and 84.3 and 55.9 and 71.5 and 75.3 and 40.4
  Liver Value: 74.9 and 61.9 and 77.3 and 94.3 and 74.2 and 85.2 and 81.3 and 57.2
Patients with NAFLD [4]; [5]
  ALP: 63.63
  CH: 194.50
  GLU: 105.95
  HDL: 48.60
  Insulin: 13.58
  Insulin Resistance: 1405.81
  LDL: 119.45
  SGOT: 24.95
  SGPT: 36.09
  TG: 132.50
  gGT: 30.95
Patients with NAFLD [4]; [6]
  ALP: 59.23
  CH: 185.67
  GLU: 96.57
  HDL: 47.67
  Insulin: 12.69
  Insulin Resistance: 1226.04
  LDL: 116.19
  SGOT: 26.33
  SGPT: 37.24
  TG: 109.76
  gGT: 27.00
Patients with NAFLD [4]; [7]
  ALP: 74.50
  CH: 194.27
  GLU: 121.18
  HDL: 41.14
  Insulin: 12.62
  Insulin Resistance: 1541.04
  LDL: 118.75
  SGOT: 32.81
  SGPT: 47.05
  TG: 205.13
  gGT: 29.20
Patients with NAFLD [4]; [8]
  ALP: 71.20
  CH: 181.15
  GLU: 112.50
  HDL: 41.70
  Insulin: 13.01
  Insulin Resistance: 1489.52
  LDL: 105.95
  SGOT: 30.90
  SGPT: 41.70
  TG: 167.80
  gGT: 25.35
